Among the test systems are SF-539 CNS; IGROV1 ovarian; HT29 colon; MALME-3M melanoma; CAKI-1 renal; 786-0 renal; HCT-15 colon; KM12 colon; NCI-H226 lung.
Assay in all cases: inhibition of tumour cell growth, NCI panel, 48 h

The text below walks through data of PubChem BioAssay (NCI).

Where “and” joins values, the source holds several entries; their conditions need not be identical. Identical values can stand only once.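 Cultured in 96-well plates, cells were exposed to test compound for 48 hours across five concentrations. Here, GI50 denotes the concentration required for 50% inhibition of growth. TGI: concentration producing complete growth inhibition.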

On to `CCOC(=O)C(=O)Nc1nc2c(s1)C(=O)c1ccccc1C2=O`, for which the TGI in the test on SF-539 CNS is 31.5 µM; in the test on IGROV1 ovarian, 37.6 µM; in the test on HT29 colon, 27.4 µM; in the test on MALME-3M melanoma, 25.8 µM; in the test on CAKI-1 renal it was 33.5 µM; in the test with 786-0 renal it was 31.2 µM. Besides, the values for the TGI in the test with HCT-15 colon, in the test on KM12 colon and with NCI-H226 lung were 29.6 µM, 30.6 µM and 34.4 µM, respectively.
On to `C[C@@H]1C[C@@H](O)[C@]2(O)O[C@@H]3C[C@@]4(C=O)[C@@H](CC[C@@H]5[C@@H]4CC[C@]4(C)[C@@H](C6=CC(=O)OC6)CC[C@]54O)C[C@H]3O[C@@H]2O1`, for which the GI50 with SF-539 CNS is 0.015 µM and 0.005 µM; in the test on IGROV1 ovarian, 0.033 µM and 0.00727 µM; with HT29 colon, 0.0534 µM and 0.0141 µM; in the test with MALME-3M melanoma, 0.0256 µM and 0.0163 µM; in the test on CAKI-1 renal it was 0.0432 µM; in the test with 786-0 renal it was 0.0212 µM and 0.005 µM. In addition, the GI50 with HCT-15 colon is 0.06 µM; with KM12 colon, 0.0722 µM and 0.0346 µM; with NCI-H226 lung, 0.188 µM and 0.0333 µM. In addition, the TGI in the test on SF-539 CNS was 0.0146 µM and 0.037 µM and 0.0144 µM; with IGROV1 ovarian, 0.0474 µM and 0.175 µM and 0.0516 µM; in the test with HT29 colon, 0.0734 µM and 0.198 µM and 0.0745 µM; in the test with MALME-3M melanoma it was 0.032 µM and 0.0802 µM and 0.0994 µM; in the test with CAKI-1 renal, 0.0486 µM and 0.36 µM; in the test with 786-0 renal, 0.0124 µM and 0.0611 µM and 0.0222 µM. For the same compound, the TGI in the test on HCT-15 colon is 0.0605 µM and 0.25 µM; with KM12 colon, 0.476 µM and 0.217 µM and 0.608 µM; in the test with NCI-H226 lung, 0.0857 µM and 0.529 µM and 0.116 µM.
For the compound `COc1cc(OC)c([C@@H]2OC(=O)C3C2C(=O)O[C@H]3c2cc(OC)c(OC)cc2OC)cc1OC` (stereo not given in full), the TGI is greater than 100 µM with SF-539 CNS; greater than 10 µM with IGROV1 ovarian; greater than 100 µM with HT29 colon; greater than 100 µM in the test on CAKI-1 renal; greater than 100 µM in the test with 786-0 renal; greater than 100 µM in the test with HCT-15 colon. The TGI with KM12 colon was greater than 100 µM.
In the case of `CCOC(=O)[C@@]1(C)C=C2O[C@@H]3OC4(CCCCC4)O[C@@H]3C2=C2C(O)=CC=C(O)[C@]21C(=O)OC`, the TGI with IGROV1 ovarian, with HT29 colon, in the test on MALME-3M melanoma, with CAKI-1 renal, in the test on 786-0 renal and with HCT-15 colon was greater than 68 µM in each case. For the same compound, the TGI in the test on KM12 colon and in the test with NCI-H226 lung was greater than 68 µM throughout.
Consider `CNC(P(=O)([O-])[O-])P(=O)([O-])[O-].N.N.[Pt+2]`, for which the GI50 with SF-539 CNS, in the test on IGROV1 ovarian, in the test with MALME-3M melanoma, with CAKI-1 renal, in the test with 786-0 renal and in the test with HCT-15 colon was greater than 100 µM in each case. Further, in the test on NCI-H226 lung, the GI50 was greater than 100 µM. In addition, the TGI in the test with SF-539 CNS, with IGROV1 ovarian, in the test on MALME-3M melanoma, with CAKI-1 renal, with 786-0 renal and in the test with HCT-15 colon was greater than 100 µM throughout. For the same compound, the TGI in the test on NCI-H226 lung was greater than 100 µM.
Turning to `CCc1cccc(C(C)C)c1NC(=O)C(=O)C(Cc1nc2ccccc2[nH]c1=O)C(=O)OC` (stereo not given), the TGI with SF-539 CNS, in the test on IGROV1 ovarian, with HT29 colon, with MALME-3M melanoma, in the test on CAKI-1 renal and in the test with 786-0 renal was greater than 100 µM throughout. Moreover, the TGI in the test on HCT-15 colon, in the test on KM12 colon and with NCI-H226 lung was greater than 100 µM throughout.
Turning to `CC1=C(C)C(=O)c2c(cc3ccc4ccccc4n23)C1=O`, the TGI in the test with SF-539 CNS, in the test with IGROV1 ovarian, in the test on HT29 colon, with MALME-3M melanoma, in the test on 786-0 renal and with HCT-15 colon was greater than 100 µM throughout. The TGI with KM12 colon and in the test on NCI-H226 lung was greater than 100 µM each time.
For the compound `Cc1ccc(OCC(=O)N2N=C(c3ccccc3)CC2(O)c2ccccc2)cc1` (stereo not given), the TGI with SF-539 CNS is greater than 100 µM; in the test on IGROV1 ovarian it was greater than 100 µM; in the test with MALME-3M melanoma, greater than 100 µM; with CAKI-1 renal, greater than 100 µM; in the test on 786-0 renal, 30 µM; in the test on HCT-15 colon, greater than 100 µM. For the same compound, the TGI was greater than 100 µM with KM12 colon and 52.5 µM in the test on NCI-H226 lung.
As to `CC(=O)O/C=C(/C=C/OC(C)=O)C(C/C=C(\C)C#CC=C(C)C)OC(C)=O` (stereo not given), the TGI with SF-539 CNS was 54.6 µM; with IGROV1 ovarian, 95.6 µM; in the test with HT29 colon, greater than 100 µM; in the test with MALME-3M melanoma, greater than 100 µM; with CAKI-1 renal, greater than 100 µM; in the test on 786-0 renal, greater than 100 µM. The TGI in the test with HCT-15 colon is 50.3 µM; with KM12 colon, 61.5 µM; with NCI-H226 lung, greater than 100 µM.
`CC1=C(C(=O)Nc2ccccc2C)C(c2ccccc2)C(C(=O)Nc2ccccc2C)=C(C)N1`: the TGI with SF-539 CNS, in the test with IGROV1 ovarian, in the test with HT29 colon, with MALME-3M melanoma, with CAKI-1 renal and in the test on 786-0 renal was greater than 100 µM in each case. In addition, the TGI with HCT-15 colon, in the test on KM12 colon and in the test on NCI-H226 lung was greater than 100 µM throughout.
In the case of `COC(=O)C1CC2(CC3=C1CCCC3)OCCO2` (stereo not given), the TGI with SF-539 CNS, in the test on IGROV1 ovarian, with HT29 colon, with MALME-3M melanoma, with CAKI-1 renal and with 786-0 renal was greater than 100 µM throughout. The TGI in the test with HCT-15 colon and in the test with KM12 colon was greater than 100 µM throughout.
On to `CCOC(=O)c1c2c(n3ccc(NC(=O)CCN4CCCC4)cc13)C(=O)c1ncccc1C2=O`, for which the GI50 is 1.52 µM with SF-539 CNS; 1.01 µM in the test on IGROV1 ovarian; 1.57 µM in the test with HT29 colon; 15.8 µM with MALME-3M melanoma; 0.181 µM in the test on CAKI-1 renal; 0.214 µM in the test with 786-0 renal. The GI50 in the test on KM12 colon was 1.52 µM; in the test on NCI-H226 lung it was 19 µM. Further, the TGI in the test on SF-539 CNS is 3.19 µM; in the test on IGROV1 ovarian, 3.27 µM; with HT29 colon, 3.46 µM; with MALME-3M melanoma, 41.4 µM; in the test with CAKI-1 renal, 1.55 µM; in the test on 786-0 renal, 1.69 µM. For the same compound, the values for the TGI in the test on KM12 colon and with NCI-H226 lung were 3.32 µM and 45.1 µM, respectively.
For `O=C(CNc1nncs1)NO`, the TGI in the test with SF-539 CNS, with IGROV1 ovarian, with HT29 colon, in the test with MALME-3M melanoma, with 786-0 renal and with HCT-15 colon was greater than 100 µM each time. In addition, the TGI with KM12 colon is greater than 100 µM.
